From patent publication US7737127B2, “2-propynyl adenosine analogs having A2A agonist activity and compositions thereof” (University of Virginia Patent Foundation, priority 2001, dated 2010)
Where two headings read alike, the source gives them in different places.

How the values were obtained:
human neutrophils = assay: Human neutrophil oxidative activity, luminol-enhanced chemiluminescence; type: cell-based; settings: for EC50: Homo sapiens, Neutrophil, read-out: PMN oxid (-log EC50) (converted); for EC50 / PMN oxid (-log EC50): human neutrophil experiment w/o Rolipram; for PMN oxid + roli (-log EC50): human neutrophil experiment w/Rolipram
Experimental: Chemiluminescence Methods: Lumninol enhanced chemiluminescence, a measure of neutrophil oxidative activity, is dependent upon both superoxide production and mobilization of the granule enzyme myeloperoxidase. The light is emitted from unstable high-energy oxygen species such as hypochlorous acid and singlet oxygen generated by activated neutrophils.
The plate was incubated 5 min (37 C) and then fMLP (50 l in HA; final concentration […]) was added to all wells.
Data are presented as peak chemiluminescence as percent of activity in the absence of an adenosine agonist. The EC50 was determined using PRISM software. All compounds were tested with PMNs from three separate donors.
Lummol-enhanced chemiluminescence, a measure of neutrophil oxidative activity, is dependent upon both superoxide production and mobilization of the lysosomal granule enzyme myeloperoxidase. The light is emitted from unstable high-energy oxygen species generated by activated neutrophils. Purified neutrophils (5-10×10^5/ml) were incubated in Hanks balanced salt solution containing 0.1% human serum albumin (1 ml) with the tested A2A agonist with or without rolipram and with or without tumor necrosis factor-alpha (1 U/ml) for 30 minutes at 37° C. in a shaking water bath. […] Chemiluminescence is reported as relative peak light emitted (=height of the curve) compared to samples with tumor necrosis factor-alpha and without agonist or rolipram.

human A1 AR = target: T1, human A1 AR (Homo sapiens, UniProt P30542); assay: Radioligand competition binding (125I-ABA) to human A1 AR in CHO K1 cell membranes; settings: for Ki: Ki from competition binding, 125I-ABA, CHO K1 cell membranes; for A1/A2A: selectivity ratio A1 over A2A
T1 sequence (P30542 1-326): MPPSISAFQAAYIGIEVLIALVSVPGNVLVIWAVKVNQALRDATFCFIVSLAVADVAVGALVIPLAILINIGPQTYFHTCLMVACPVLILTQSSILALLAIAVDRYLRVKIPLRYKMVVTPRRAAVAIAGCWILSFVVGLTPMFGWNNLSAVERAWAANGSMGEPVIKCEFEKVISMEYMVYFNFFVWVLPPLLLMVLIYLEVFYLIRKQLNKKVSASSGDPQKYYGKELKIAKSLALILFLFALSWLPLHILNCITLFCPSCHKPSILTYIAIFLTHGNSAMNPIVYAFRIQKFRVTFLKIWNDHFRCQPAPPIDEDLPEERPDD

A3 AR = target: T2, A3 AR (Homo sapiens, UniProt P0DMS8); assay: Radioligand competition binding (125I-ABA) to human A3 AR in HEK 293 cell membranes; settings: for Ki: Ki from competition binding, 125I-ABA, HEK 293 cell membranes; for A3/A2A: selectivity ratio A3 over A2A
T2 sequence (P0DMS8 1-318): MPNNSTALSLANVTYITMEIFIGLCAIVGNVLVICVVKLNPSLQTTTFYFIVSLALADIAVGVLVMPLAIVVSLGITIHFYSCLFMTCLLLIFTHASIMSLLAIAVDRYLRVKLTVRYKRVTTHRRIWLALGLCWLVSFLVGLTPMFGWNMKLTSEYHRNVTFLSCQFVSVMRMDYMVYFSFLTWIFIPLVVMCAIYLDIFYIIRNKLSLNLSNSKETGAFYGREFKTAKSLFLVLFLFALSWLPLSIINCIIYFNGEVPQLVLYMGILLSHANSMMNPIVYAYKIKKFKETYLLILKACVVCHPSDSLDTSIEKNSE

[1] = target: recombinant human A2A receptors (Homo sapiens, UniProt P29274); assay: Radioligand competition binding to recombinant human A2A receptors in Sf9 cell membranes; settings: Ki from competition binding, Sf9 cell membranes
Sequence of recombinant human A2A receptors (P29274 whole entry): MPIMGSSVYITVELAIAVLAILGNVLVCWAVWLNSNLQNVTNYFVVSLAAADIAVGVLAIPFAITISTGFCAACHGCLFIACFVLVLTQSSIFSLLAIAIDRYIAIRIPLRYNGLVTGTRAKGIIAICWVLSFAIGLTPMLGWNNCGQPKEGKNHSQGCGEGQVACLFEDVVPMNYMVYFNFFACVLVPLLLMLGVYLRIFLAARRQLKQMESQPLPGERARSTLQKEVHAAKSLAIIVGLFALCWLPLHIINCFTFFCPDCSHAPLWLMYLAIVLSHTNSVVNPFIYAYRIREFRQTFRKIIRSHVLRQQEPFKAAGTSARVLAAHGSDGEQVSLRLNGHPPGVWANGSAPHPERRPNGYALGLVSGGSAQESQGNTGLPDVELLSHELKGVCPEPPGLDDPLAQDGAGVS

Row | EC50 (human neutrophils) | PMN oxid + roli (-log EC50) (human neutrophils) | Ki (human A1 AR; A1 ± SEM) | A1/A2A (human A1 AR) | Ki (A3 AR; A3 ± SEM) | A3/A2A (A3 AR) | Ki ([1]; A2A ± SEM) | PMN oxid (-log EC50) (human neutrophils) | Ki (human A1 AR; read-out: A1 ± SEM) | Ki (A3 AR; read-out: A3 ± SEM) | Ki ([1]; read-out: A2A ± SEM) | Compound
1 | 0.00447 µM | 9.29 | 0.0109 ± 0.0005 µM | 12.2 | 0.113 ± 0.006 µM | 127.0 | 0.0009 ± 4e-05 µM | – | – | – | – | CCNC(=O)[C@H]1O[C@@H](n2cnc3c(N)nc(C#CC4(O)CCC(c5ccccc5)CC4)nc32)C(O)C1O (stereo in doubt) [JR-3161, 5-[6-Amino-2-(1-hydroxy-4-phenyl-cyclohexylethynyl)-purin-9-yl]-3,4-dihydroxytetrahydrofuran-2-carboxylic acid ethylamide]
2 | 0.00347 µM | 9.26 | 0.205 ± 0.0026 µM | 227.8 | 0.0456 ± 0.01 µM | 50.7 | 0.0009 ± 0.0001 µM | – | – | – | – | CCNC(=O)[C@H]1O[C@@H](n2cnc3c(N)nc(C#CCC4CCN(C(=O)OC(C)(C)C)CC4)nc32)C(O)C1O (stereo in doubt) [JR-3259, 4-{3-[6-Amino-9-(5-ethylcarbamoyl-3,4-dihydroxytetrahydrofuran-2-yl)-9H-purin-2-yl]-prop-2-ynyl}-piperidine-1-carboxylic acid tert-butyl ester]
3 | – | 8.7 | 0.099 ± 0.027 µM | 76.2 | 0.039 ± 0.003 µM | 30.0 | 0.0013 ± 0.0008 µM | 7.65 | – | – | – | CCNC(=O)[C@H]1O[C@@H](n2cnc3c(N)nc(C#CCC4CCC(C)(C(=O)OC)CC4)nc32)C(O)C1O (single isomer, unassigned) [JR-3067A, 4-{3-[6-Amino-9-(5-ethylcarbamoyl-3,4-dihydroxytetrahydrofuran-2-yl)-9H-purin-2-yl]-prop-2-ynyl}-1-methyl-cyclohexanecarboxylic acid methyl ester]
4 | – | 8.77 | 0.0449 ± 0.0172 µM | 38.1 | 0.0697 ± 0.043 µM | 59.1 | 0.0012 ± 0.00015 µM | 7.73 | – | – | – | CCNC(=O)[C@H]1O[C@@H](n2cnc3c(N)nc(C#CC4(O)CCCCC4C)nc32)C(O)C1O (single isomer, unassigned) [JR-3181A, 5-[6-Amino-2-(1-hydroxy-2-methyl-cyclohexylethynyl)-purin-9-yl]-3,4-dihydroxytetrahydrofuran-2-carboxylic acid ethylamide]
5 | 0.0437 µM | 8.42 | 0.0138 ± 0.0005 µM | 4.2 | 0.0313 ± 0.0093 µM | 9.5 | 0.00329 ± 0.00049 µM | – | – | – | – | CCNC(=O)[C@H]1O[C@@H](n2cnc3c(N)nc(C#CCN4CCCCC4C(=O)OC)nc32)C(O)C1O (some centres unmarked) [JR-3253, 1-{3-[6-Amino-9-(5-ethylcarbamoyl-3,4-dihydroxytetrahydrofuran-2-yl)-9H-purin-2-yl]-prop-2-ynyl}-piperidine-2-carboxylic acid methyl ester]
6 | 0.00646 µM | – | 0.00915 ± 0.00135 µM | 3.9 | 0.038 µM | 16.1 | 0.00236 ± 0.0005 µM | – | – | – | – | CCNC(=O)[C@H]1O[C@@H](n2cnc3c(N)nc(C#CCN4CCN(C(=O)OC(C)(C)C)CC4)nc32)C(O)C1O (stereo in doubt) [JR-3281, 4-{3-[6-Amino-9-(5-ethylcarbamoyl-3,4-dihydroxytetrahydrofuran-2-yl)-9H-purin-2-yl]-prop-2-ynyl}-piperazine-1-carboxylic acid tert-butyl ester]
7 | 0.00871 µM | 9.2 | 0.157 ± 0.014 µM | 98.1 | 0.0236 ± 0.00035 µM | 14.8 | 0.0016 ± 0.00028 µM | – | – | – | – | CCNC(=O)[C@H]1O[C@@H](n2cnc3c(N)nc(C#CC4(O)CCCC(C)(C)C4)nc32)C(O)C1O (stereo in doubt) [JR-3201B, 5-[6Amino-2-(1-hydroxy-3,3-dimethylcyclohexylethynyl)-purin-9-yl]-3,4-dihydroxytetrahydrofuran-2-carboxylic acid ethylamide]
8 | – | 7.6 | – | 8.3 | – | 15.2 | – | 6.4 | 0.0473 ± 0.0116 µM | 0.0867 ± 0.00375 µM | 0.0057 ± 0.0018 µM | CCNC(=O)C1OC(n2cnc3c(N)nc(C#CCC4CCNCC4)nc32)C(O)C1O (centres unmarked) [JR-3261]
9 | 0.0457 µM | 8.68 | 0.113 ± 0.011 µM | 27.6 | 0.093 ± 0.021 µM | 22.7 | 0.0041 ± 0.0009 µM | – | – | – | – | CCNC(=O)C1CCC(CC#Cc2nc(N)c3ncn([C@@H]4O[C@H](C(=O)NCC)C(O)C4O)c3n2)CC1 (stereo in doubt) [JR-3037, 5-{6-Amino-2-[3-(4-ethylcarbamoyl-cyclohexyl)-prop-1-ynyl]-purin-9-yl}-3,4-dihydroxytetrahydrofuran-2-carboxylic acid ethylamide]
10 | 0.912 µM | 7.72 | 0.189 ± 0.019 µM | 6.4 | 0.029 ± 0.01 µM | 1.0 | 0.0296 ± 0.0012 µM | – | – | – | – | CCNC(=O)[C@H]1O[C@@H](n2cnc3c(N)nc(C#CCC4CCC(C(=O)O)CC4)nc32)C(O)C1O (stereo in doubt) [ATL-146a, 4-{3-[6-Amino-9-(5-ethylcarbamoyl-3,4-dihydroxytetrahydrofuran-2-yl)-9H-purin-2-yl]-prop-2-ynyl}-cyclohexanecarboxylic acid]
11 | 0.0324 µM | 8.7 | 0.019 ± 0.001 µM | 12.6 | 0.076 ± 0.006 µM | 50.3 | 0.0015 ± 1e-05 µM | – | – | – | – | CCNC(=O)[C@H]1O[C@@H](n2cnc3c(N)nc(C#CCC4CCC(CO)CC4)nc32)C(O)C1O (stereo in doubt) [ATL-2037, 5-{6-Amino-2-[3-(4-hydroxymethyl-cyclohexyl)-prop-1-ynyl]-purin-9-yl}-3,4-dihydroxytetrahydrofuran-2-carboxylic acid ethylamide]
12 | 0.0138 µM | – | 0.0144 µM | 3.8 | – | 0.0 | 0.00382 ± 0.00095 µM | – | – | – | – | CCNC(=O)[C@H]1O[C@@H](n2cnc3c(N)nc(C#CCN4CCC(C(=O)OCC)CC4)nc32)C(O)C1O (stereo in doubt) [JR-3279, 1-{3-[6-Amino-9-(5-ethylcarbamoyl-3,4-dihydroxytetrahydrofuran-2-yl)-9H-purin-2-yl]-prop-2-ynyl}-piperidine-4-carboxylic acid ethyl ester]
13 | 0.105 µM | 8.31 | 0.0523 ± 0.0076 µM | 9.3 | 0.071 ± 0.016 µM | 12.6 | 0.0057 ± 0.0006 µM | – | – | – | – | CCNC(=O)[C@H]1O[C@@H](n2cnc3c(N)nc(C#CCC4CCC(C(C)O)CC4)nc32)C(O)C1O (stereo in doubt) [JR-3121, 5-(6-Amino-2-{3-[4-(1-hydroxy-ethyl)-cyclohexyl]-prop-1-ynyl}-purin-9-yl)-3,4-dihydroxytetrahydrofuran-2-carboxylic acid ethylamide]
14 | 0.00355 µM | – | 0.167 µM | 116.4 | 0.086 µM | 60.1 | 0.00143 ± 0.00023 µM | – | – | – | – | CCNC(=O)[C@H]1O[C@@H](n2cnc3c(N)nc(C#CCC4CCN(C(=O)OC(C)C)CC4)nc32)C(O)C1O (stereo in doubt) [JR-4009, 4-{3-[6-Amino-9-(5-ethylcarbamoyl-3,4-dihydroxytetrahydrofuran-2-yl)-9H-purin-2-yl]-prop-2-ynyl}-piperidine-1-carboxylic acid isopropyl ester]
15 | – | 10.36 | – | 5.7 | – | 7.4 | – | 9.44 | 0.002 ± 0.00021 µM | 0.0026 ± 0.0003 µM | 0.0004 ± 7e-05 µM | CCNC(=O)C1OC(n2cnc3c(N)nc(C#CC(O)C4CCCCC4)nc32)C(O)C1O (single isomer, unassigned) [JR-3159B]
